Assay results: patent publication US20240350542A1, “ANTICANCER T CELL THERAPY PRODUCT-ASSISTING COMPOSITION COMPRISING DEPLETING ANTI-CD4 MONOCLONAL ANTIBODY AND USE THEREOF” (NATIONAL CANCER CENTER, priority 2018, published 2024)
Where two headings read alike, the source gives them in different places.

Legend:
[1] = system: inguinal lymph node and spleen cell number
Description: (§1) Specifically, 2×10^5 B16-F10 melanoma cancer cells were subcutaneously injected into the dorsal area of a C57BL/6 mouse to induce the formation of cancer tissue. At the same time, aPmel-1 was prepared in the same manner as in Example 1. aPmel-1 and IL-2 were administered in the same manner as in Example 1, and transient immunodeficiency was induced by intraperitoneally injecting 150, 200 and 300 mg/kg of cyclophosphamide (CTX) two days before the aPmel-1 administration. In addition, to confirm a period of maintaining transient immunodeficiency according to the dose of CTX, 150, 200 and 300 mg/kg of CTX was intraperitoneally injected into C57BL/6 mice once, and an inguinal lymph node and the spleen of the mice were collected, followed by single cell suspension and then counting a cell number.

[2] = system: B16-F10 melanoma cancer cells
Description: as §1

SMILES: O=P1(N(CCCl)CCCl)NCCCO1 (stereo not drawn) [CTX, cyclophosphamide]
- transient immunodeficiency effect ([1]; C57BL/6, 150 mg/kg CTX): insignificant
- period the immunodeficiency effect was maintained ([1]; C57BL/6, 200 mg/kg CTX intraperitoneally once): approximately 2 weeks
- toxicity to the mouse ([2]; 300 mg/kg or more of CTX): can be toxic to the mouse, leading to the death of the mouse
- survival of mouse ([2]; C57BL/6, 150 mg/kg CTX only): up to 35 days
- growth of cancer tissue ([2]; C57BL/6, 150 mg/kg CTX only, vs NT): cancer tissue grew more slowly
- growth of cancer tissue ([2]; C57BL/6, 200 mg/kg CTX only): slower growth of cancer tissue than the 150 mg/kg CTX-administered mouse
- survival of mouse ([2]; C57BL/6, 200 mg/kg CTX only): up to 45 days
- growth of cancer tissue ([2]; C57BL/6, 300 mg/kg CTX only): slower growth of cancer tissue than when 200 mg/kg CTX-administered mouse
- survival of mouse ([2]; C57BL/6, 300 mg/kg CTX only): up to 60 days
